From US20230248627A1, “COMPOSITION FOR HAIR FOLLICLE MODULATION, METHODS AND USES THEREOF” (priority 2020, published 2023) come the findings set out here.

The test system of experiment [1] is human scalp. Nature of the experiment: Pilot clinical study: hair curvature index after topical scalp application. The format is in vivo. The conditions noted are these: for visible effect on hair shape: after 5 weeks of treatment; for Effectiveness (% of volunteers) / Hair shape change (% of control), max. / Hair shape change (% of control), mean: 5 weeks, 3 times per week; for Hair shape change (% of control), max. / Hair shape change (% of control), mean: curvature index. The source says:
This example discloses the treatment of human scalp with a formulation containing a modulation bioactive agent for straightening the hair.
The bioactive agent used in this example was Midodrine hydrochloride as straightening agent in a formulation containing water, a thickener agent with emulsifying properties - Lecigel™, a preservative agent – Euxyl® PE 9010, denaturing alcohol and Transcutol® CG.
The volunteers for the application test of the formulation with the modulation bioactive agent Midodrine hydrochloride had curly hair.
Each volunteer received the formulation without the agent Midodrine hydrochloride and the formulation with the agent Midodrine hydrochloride.
(§1) On each volunteer, the hair was shaved in two different posterior scalp locations, of approximately 1 cm^2 each, and the formulations were applied for 5 weeks, three times a week.
The formulations with and without Midodrine were applied directly on scalp. Ten microliters per 1 cm^2 of the control formulation without Midodrine hydrochloride were applied to one of the two shaved scalp areas while ten microliters per 1 cm^2 of the formulation with Midodrine hydrochloride were applied to the other shaved scalp area.
After the 15th application of formulations with and without the modulation agent, a final picture was taken showing both sites of application, the growth rate of the hairs was measured, and some hairs were plucked for further tests.
The curvature index was determined after the clinical cosmetic study conclusion, using hairs collected from the scalp areas treated with and without the modulation bioactive agent in a formulation. The control was the hair collected from scalp area treated with the formulation without the modulation bioactive ingredient.
The effect on curvature index was calculated according to the following formula: […]
Each hair was individually measured over a white paper (hair in a relaxed form) and a force was applied in order to keep the hair straight (under stress) and, in this way, measure the length of hair in stressed form.
This example discloses the treatment of human scalp with a formulation containing a modulation bioactive agent for curling the hair.
The modulation bioactive agent used in this example was Topiramate as curling agent in a formulation containing water, a thickener agent with emulsifying properties - Lecigel™, a preservative agent - Euxyl® PE 9010, denaturing alcohol and Transcutol® CG.
The volunteers for the application test of the formulation with the modulation agent Topiramate had straight hair.
Each volunteer received the formulation without the agent Topiramate and the formulation with the agent Topiramate.
The formulations with and without Topiramate were applied directly on scalp. Ten microliters per 1 cm^2 of the control formulation without Topiramate were applied to one of the two shaved scalp areas while ten microliters per 1 cm^2 of the formulation with Topiramate were applied to the other shaved scalp area.
(§2) After the 15th application of formulations with and without the modulation bioactive agent, a final picture was taken, the growth rate of the hairs was measured, and some hairs were plucked for further tests.
The curvature index was determined after the clinical cosmetic study conclusion, using hairs collected from the scalp areas treated with and without the modulation bioactive agent in a formulation. The control was the hair collected from the scalp area treated with the formulation without the modulation bioactive ingredient.

In experiment [2] the test system is human melanocytes (SK-MEL-23 cell line). Kind of experiment: Intracellular melanin quantification in melanocytes treated in vitro. The format is cell-based. Particulars: 10 µM dipyridamole, 1% (v/v) DMSO, 3 days, normalized by protein levels. As for the experimental part:
This example discloses an “in vitro” treatment of human melanocytes (SK-MEL-23 cell line) with a solution containing a modulation bioactive agent for darkening the skin.
In an embodiment, the bioactive agent used in this example was Dipyridamole as darkening agent in a solution containing water and DMSO.
Cells were seeded on 24-well plates at density of 9.0x10^4 cells/well and treated next day with 10 µM of dipyridamole and 1% (v/v) DMSO. In the control, cells were seeded on 24-well plates at density of 9.0x10^4 cells/well and treated next day with 1% (v/v) DMSO.
The intracellular melanin quantification was performed after 3 days. The method for quantifying melanin in hair was as described by Fernandes B. et al., 2016 [51]. The melanin contents were normalized by protein levels in each sample (DC Protein assay). Melanin change in cells treated with Dipyridamole was calculated using the following mathematical formula: […]

Experiment [3] relates to human scalp. Nature of the experiment: Pilot clinical study: hair melanin quantification after topical scalp application. Particulars: for visible effect on hair colour: after 5 weeks of treatment; for Effectiveness (% of volunteers) / Hair Melanin change (% of control), max.: 5 weeks, 3 times per week. The class given is in vivo. The method, then: All the results present on the following described examples were performed in a pilot clinical study with intervention of cosmetic products (RNEC number: 92938), not contested by the Portuguese Legal Competent Authorities.
This example discloses the treatment of human scalp with a formulation containing a modulation bioactive agent for lightening the hair.
The modulation bioactive agent used in this example was Rivastigmine hydrogen tartrate as lightening agent in a formulation containing water, a thickener agent with emulsifying properties - Lecigel™, a preservative agent - Euxyl® PE 9010, denaturing alcohol and Transcutol® CG.
The volunteers for the application test of the formulation with the modulation agent Rivastigmine hydrogen tartrate had black to medium brown hair.
Each volunteer received the formulation without the agent Rivastigmine hydrogen tartrate and the formulation with the agent Rivastigmine hydrogen tartrate.
as §1
The formulations with and without Rivastigmine were applied directly on scalp. Ten microliters per 1 cm^2 of the control formulation without Rivastigmine hydrogen tartrate were applied to one of the two shaved scalp areas while ten microliters per 1 cm^2 of the formulation with Rivastigmine hydrogen tartrate were applied to the other shaved scalp area.
After the 15th application of formulations with and without the modulation agent, a final picture was taken, the growth rate of the hairs was measured, and some hairs were plucked for further tests.
The hair melanin quantification process was performed after the clinical cosmetic study conclusion, using hairs collected from the scalp areas treated with and without Rivastigmine hydrogen tartrate in a formulation. The control means the hair collected from the scalp area treated with the formulation without Rivastigmine hydrogen tartrate.
In an embodiment, the method for quantifying melanin in hair was as described by Fernandes B. et al., 2016 [51]. Hair samples were digested in NaOH and the solutions obtained normalized to 1 mg/mL of hair. Complete oxidation of hair lysates was performed with hydrogen peroxide and melanin content in hair samples calculated by fluoresce spectroscopy using a standard curve generated by the fluorescence of oxidized melanin standards. Melanin change in hair treated with a formulation with Rivastigmine was calculated using the following mathematical formula: […]
This example discloses the treatment of human scalp with a formulation containing a modulation bioactive agent for darkening the hair.
In an embodiment, the bioactive agent used in this example was Dipyridamole as darkening agent in a formulation containing water, a thickener agent with emulsifying properties - Lecigel™, a preservative agent - Euxyl® PE 9010, denaturing alcohol and Transcutol® CG.
The volunteers for the application test of the formulation with the modulation bioactive agent Dipyridamole had blond hair of different shades.
Each volunteer received the formulation without the agent Dipyridamole and the formulation with the agent Dipyridamole.
In an embodiment, the formulations with and without Dipyridamole were applied directly on scalp. Ten microliters per 1 cm^2 of the control formulation without Dipyridamole were applied to one of the two shaved scalp areas while ten microliters per 1 cm^2 of the formulation with Dipyridamole were applied to the other shaved scalp area.
as §2
The hair melanin quantification process was performed after the clinical cosmetic study conclusion, using hairs collected from the scalp areas treated with and without Dipyridamole in a formulation. […]

Where [4] appears, read: Straightening, 0.25% w/w formulation, curly-haired volunteers.
The mark [5] stands for this setting: Curling, 1.75% w/w formulation, straight-haired volunteers.

Structures can show the parent of a compound that is named as a salt.

Turning to `COc1ccc(OC)c(C(O)CNC(=O)CN)c1` (stereo not drawn) [Midodrine HCl, Midodrine hydrochloride], the “visible effect on hair shape” value in experiment [1] (0.25% w/w formulation on scalp, very curly hair) is “induced a straightening effect”. In addition, in experiment [1] (Straightening, 0.25% w/w formulation on scalp, curly-haired volunteers), the “Effectiveness (% of volunteers)” value is recorded as 75.0%. Also, in experiment [1] (setting [4]), the “Hair shape change (% of control), max.” value was “+120.0%” and the “Hair shape change (% of control), mean” value is on record as “+76.0%”.
For the compound `OCCN(CCO)c1nc(N2CCCCC2)c2nc(N(CCO)CCO)nc(N3CCCCC3)c2n1` [Dipyridamole], the “increase in melanin production relative to the control experiment” value in experiment [2] turned out to be 3.5 fold. Further, in experiment [3] (0.01% w/w formulation on scalp), the “visible effect on hair colour” value is listed as “induced a darkening effect”. For the same compound, the “Effectiveness (% of volunteers)” value in experiment [3] (Darkening, 0.01% w/w formulation on scalp, blond hair) is reported as 67.0 % of volunteers. Moreover, in experiment [3] (Darkening, 0.01% w/w formulation, blond hair), the “Hair Melanin change (% of control), max.” value is “+57.9%”.
On to `CCN(C)C(=O)Oc1cccc([C@H](C)N(C)C)c1` [Rivastigmine, Rivastigmine hydrogen tartrate], for which, in experiment [3] (0.2% w/w formulation on scalp), the “visible effect on hair colour” value is “induced a lightening effect”. Further, in experiment [3] (Lightening, 0.2% w/w formulation on scalp, black to medium brown hair), the “Effectiveness (% of volunteers)” value was 50.0 % of volunteers. Besides, the “Hair Melanin change (% of control), max.” value in experiment [3] (Lightening, 0.2% w/w formulation, black to medium brown hair) is reported as -26.3%.
Take `CC1(C)O[C@@H]2[C@@H](CO[C@@]3(COS(N)(=O)=O)OC(C)(C)O[C@@H]23)O1` [Topiramate]: the “visible effect on hair shape” value in experiment [1] (1.75% w/w formulation on scalp, straight hair) is “induced a curling effect”. In experiment [1] (Curling, 1.75% w/w formulation on scalp, straight-haired volunteers), the “Effectiveness (% of volunteers)” value is recorded as 83.3%. Besides, in experiment [1] (setting [5]), the “Hair shape change (% of control), max.” value is reported as -11.0% and the “Hair shape change (% of control), mean” value is given as -10.0%.
